Here are results for 1 compound from patent US20230313199A1, “TARGET FOR MODULATING BODY MASS” (Massachusetts Institute of Technology, priority 2020, published 2023).

Experiment [1] deals with 293T cells. The experiment in a line: Thermogenesis by FPT, parental 293T cells. In kind it is cell-based, human. The note with it: heme for 1 hour. How it is done:
Shown are representative graphs of OCR output of the indicated cells with or without hematin treatment and their responses to oligomycin, FCCP, and rotenone plus antimycin A (FIG. 12B), basal OCR (FIG. 12C), maximal OCR (FIG. 12D), and ECAR (FIG. 12E) from two separate experiments with n=10 biologically independent samples. Data are presented as mean value±standard deviation. Each dot represents one technical replicate. […] Parental and knockout cells were incubated with no probe or FPT for 6 hours, and then washed twice. A portion of FPT-treated cells was treated with heme for 1 hour. FPT fluorescence intensity was quantified by flow cytometry. Shown are representative plots from two separate experiments. P-values were calculated using two-way ANOVA (***p<0.001).
In the second approach, we used fluorescent polymeric thermometer (FPT), which we synthesized in-house (see above). Parental and knockout THP-1 cells were mixed together, washed and incubated with FPT in 5% w/v glucose solution for 6 hrs. The cells were washed with PBS twice and reseeded in dishes with glass bottom that was coated with poly-lysine. The cells were imaged under Confocal Laser-Scanning Microscopy at 37° C. […] Then the fluorescence intensities were determined by a flow cytometer.

In another experiment the test system is THP-1 cells. The experiment in a line: Oxygen consumption rate (Seahorse XF96e), parental THP-1 cells. The class given is cell-based, human. The conditions noted are these: 40 μM heme for one hour vs vehicle. How it is done:
Measurements of OCR, ECAR, and MMP. Oxygen consumption rate (OCR) and extracellular acidification rate (ECAR) were measured using XF96e Seahorse Extracellular Flux Analyzer per manufacturer's protocol. To increase adherence of suspension cells, Seahorse plates were coated with Corning® Cell TAK (Catalog No. 354240). THP-1 and 7CKO cells were then attached to the plate according to the manufacturer's instructions. Cells were incubated in complete RPMI media with or without 40 μM heme. Changes in oxygen consumption were measured following treatment with oligomycin (5 μM), FCCP (2 μM), and rotenone (1 μM) plus antimycin A (1 μM). For BMDM, 5×10^5 cells/well were plated in 100 μL of BMDM media, 24 hours before the start of the assay. For OCR measurements, BMDM media was replaced with 180 μL of Seahorse XF Base Medium supplemented with 10 mM D-glucose, 1 mM sodium pyruvate, and 1 mM L-glutamine. For ECAR measurements, BMDM media was replaced with 180 μL of Seahorse XF RPMI Medium pH 7.4 supplemented with 2 mM L-glutamine. The Glycolysis Stress Test was performed using D-glucose, rotenone/antimycin A, and 2-deoxy-D-glucose at 10 mM, 0.5 μM, and 50 mM final concentration, respectively.

The next experiment addresses T1, HP motif peptide (Homo sapiens, UniProt Q9UPI3).
T1 construct: a synthetic 14-amino acid HP motif peptide; made in house; host or cells: chemical solid-phase synthesis (Koch Institute Biopolymers & Proteomics Core)
The experiment in a line: Isothermal titration calorimetry of HP motif peptide binding to heme (one-site model). On the technique in general: ITC needs no label: the signal is the heat of the interaction.

The target in experiment [2] is T2, MFSD7C-SERCA2b co-localization (Homo sapiens, UniProt Q9UPI3).
T2 construct: host or cells: THP-1 cells
The experiment in a line: Confocal co-localization of MFSD7C and SERCA2b in THP-1 cells. The note with it: 40 μM heme 1 hour, 0.89 without heme. In kind it is cell-based. How it is done: FIGS. 16A-16F show Co-localization of MFSD7C and SERCA2b. […] Shown are representative images of THP-1 cells stained for MFSD7C (red), SERCA2b (green), nuclei (blue) and merged image. […] THP-1 cells were not treated or treated with 40 μM of heme for 1 hour and then stained for MFSD7C, SERCA2b and nuclei as in (FIG. 16A). Co-localization between MFSD7C and SERCA2b was quantified. Shown are representative merged images (FIG. 16B) and comparison of Pearson's correlation coefficients values with or without heme treatment (FIG. 16C) (in FIG. 16C, n=7 biologically independent samples). P-values were calculated using unpaired t-test (***p<0.05). […] THP-1 cells were stained for MFSD7C (red), ER (green), mitochondria (blue), and DNA (grey). Shown are representative single and merged images (FIG. 16D). Enlarged image of the boxed area is shown in the last panel (bottom-right). Pearson's rank correlation values between the indicated comparisons are shown (FIG. 16E). (n=3 biologically independent samples). […] THP-1 cells were incubated with FPT for 6 hours, washed, treated with or without 4 μM thapsingargin for 2 hours. The cells were washed and reseeded in poly-lysine coated glass bottom dishes. After cells attached to the glass, medium containing 40 μM heme was added. Cells in the same field were imaged immediately (0 min) and again 1 hour later. […]

The subject of experiment [3] is 293T cells. The experiment can be described thus: Oxygen consumption rate, parental 293T cells. In kind it is cell-based, human. The conditions noted are these: 40 μM heme for 1 hour.
Experiment [4] has as its target T3, interaction between HMOX1 and MFSD7C (Mus musculus, UniProt Q91X85).
T3 construct: expressed in transfected cells; host or cells: 293FT cells
The experiment in a line: Co-IP of HA-tagged MFSD7C with FLAG-tagged HMOX1 in transfected 293FT cells. The class given is cell-based, murine. The conditions noted are these: 10 μM or 40 μM heme for one hour before cell lysis. How it is done:
Co-transfection and immunoprecipitation. For co-IP, HA-tagged MFSD7C was co-transfected with FLAG-tagged HMOX1 (Origene Catalog No. MR203944), CYC1, COX4I1, NDUFA4, ATP5h, ATP5c1 into 293FT cells using TransIT®-LT1 Transfection Reagent (Mirus). Thirty-six hours after transfection, the cells were lysed using cold Lysis Buffer containing 20 mM Tris-HCl (pH 7.4), 150 mM NaCl, 0.1% NP-40, 10% glycerol, proteinase inhibitor (Sigma Catalog No. 4693132001), and phosphatase inhibitors (Sigma Catalog No. 4906845001). The clear supernatants from the lysate were incubated with M2-magnetic beads conjugated with anti-FLAG antibody (Sigma Catalog No. M8823) for 2 hours at 4° C. Then the beads were washed twice and eluted by the 3× FLAG peptides (Sigma Catalog No. F4799).
To determine the effect of heme on MFSD7C interactions with ETC components, HMOX1 or SERCA2b, 293FT cells were transiently transfected with HA-tagged murine MFSD7C and FLAG-tagged murine CYC1, NDUFA4, COX4i1, ATP5h, ATP5c1, HMOX1 or SERCA2b. 35 hrs later, co-transfected cells were incubated with DMSO (vehicle) or 10 μM or 40 μM of heme for one hour before lysis. Cell lysates were precipitated with anti-HA antibody, eluted with HA peptide, further precipitated with anti-FLAG antibody, eluted with FLAG peptide, and then subjected to Western blotting with anti-HA and anti-FLAG antibodies. […]

T3 sequence (Q91X85 whole entry): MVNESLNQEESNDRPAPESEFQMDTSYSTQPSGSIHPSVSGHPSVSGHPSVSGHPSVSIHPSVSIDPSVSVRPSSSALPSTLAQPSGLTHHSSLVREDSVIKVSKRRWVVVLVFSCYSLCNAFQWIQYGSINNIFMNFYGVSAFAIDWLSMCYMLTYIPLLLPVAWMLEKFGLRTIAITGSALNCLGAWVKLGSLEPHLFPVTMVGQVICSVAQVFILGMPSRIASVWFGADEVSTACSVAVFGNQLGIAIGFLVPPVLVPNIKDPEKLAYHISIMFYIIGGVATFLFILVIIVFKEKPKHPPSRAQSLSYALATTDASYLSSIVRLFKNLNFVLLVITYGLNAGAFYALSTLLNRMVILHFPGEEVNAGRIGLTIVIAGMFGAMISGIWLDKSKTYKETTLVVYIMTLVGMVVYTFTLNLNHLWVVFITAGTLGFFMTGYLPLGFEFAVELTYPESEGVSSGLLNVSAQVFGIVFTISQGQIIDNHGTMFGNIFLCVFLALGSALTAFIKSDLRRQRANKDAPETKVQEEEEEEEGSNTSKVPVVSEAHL
T3 sequence (P14901 whole entry partner): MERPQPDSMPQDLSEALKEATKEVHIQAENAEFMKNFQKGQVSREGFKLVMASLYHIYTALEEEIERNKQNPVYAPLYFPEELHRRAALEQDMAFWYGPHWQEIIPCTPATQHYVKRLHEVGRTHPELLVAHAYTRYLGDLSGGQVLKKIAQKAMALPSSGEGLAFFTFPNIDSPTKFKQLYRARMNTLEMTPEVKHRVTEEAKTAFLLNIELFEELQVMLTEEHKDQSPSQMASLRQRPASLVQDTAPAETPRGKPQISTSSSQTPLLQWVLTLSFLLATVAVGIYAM
T2 sequence (Q9UPI3 whole entry): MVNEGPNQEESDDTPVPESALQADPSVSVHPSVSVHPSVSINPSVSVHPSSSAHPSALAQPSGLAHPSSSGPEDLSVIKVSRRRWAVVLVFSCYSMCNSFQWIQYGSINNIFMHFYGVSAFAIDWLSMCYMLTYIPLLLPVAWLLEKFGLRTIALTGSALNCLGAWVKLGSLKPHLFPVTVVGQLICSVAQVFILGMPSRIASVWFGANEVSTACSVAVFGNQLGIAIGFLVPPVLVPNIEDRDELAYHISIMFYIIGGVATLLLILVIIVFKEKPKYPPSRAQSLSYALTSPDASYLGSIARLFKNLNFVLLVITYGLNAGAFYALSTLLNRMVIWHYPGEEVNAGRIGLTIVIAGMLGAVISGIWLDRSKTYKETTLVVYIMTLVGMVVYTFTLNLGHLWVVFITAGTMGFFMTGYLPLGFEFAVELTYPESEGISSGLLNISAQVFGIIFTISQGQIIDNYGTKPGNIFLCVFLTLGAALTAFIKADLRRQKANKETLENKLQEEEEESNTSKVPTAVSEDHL

Consider `C=CC1=C(C)c2cc3[n-]c(cc4[n-]c(cc5nc(cc1n2)C(C)=C5C=C)c(C)c4CCC(=O)O)c(CCC(=O)O)c3C.[Fe+2]` [heme], for which, in the experiment on 293T cells [1], the FTP intensity entry is given as “significantly stimulated”. Also, in the experiment with THP-1 cells, the “basal OCR” value is given as “increased” and the “maximal OCR” value was “increased”. For the same compound, the “binding stoichiometry heme : HP motif peptide” value on HP motif peptide was “one heme bound to one HP motif peptide”. The “Pearson's correlation coefficient value of MFSD7C/SERCA2b co-localization” value in experiment [2] was 0.67. Also, the OCR entry in the experiment on 293T cells [3] is reported as “significantly stimulated”. In addition, the “interaction between HMOX1 and MFSD7C (co-IP)” value in experiment [4] is listed as “enhanced”.
